# Assay results published in the supplement of paper PMC10307832.
# Legend:
# Assay in all cases: relative viability (nuclei count vs DMSO), 5 days (fraction); higher = more cells survive
# SGI-1776 = compound: CN1CCC(CNc2ccc3ncc(-c4cccc(OC(F)(F)F)c4)n3n2)CC1 [SGI-1776]
# In short: (§1)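 Lung cancer cell lines were seeded into 1536-well plates, kept overnight at 37 °C and pinned with five library-drug doses (not always all listed) spaced by √10. After 5 days, nuclei were Hoechst-stained, imaged at 4× and counted with MetaXpress. Viability is treated-well nuclei over vehicle-well nuclei, taken as a median across plates. Plates needed control CV below 25% and at least one doubling.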
# [1] = compound: C1COCCN1C2=NC(=NC3=C2OC4=C3C=CC=N4)C5=CC(=CC=C5)NC(=O)C6=CN=C(C=C6)N
# In short: as §1
# Entinostat = compound: Nc1ccccc1NC(=O)c1ccc(CNC(=O)OCc2cccnc2)cc1 [Entinostat]
# In short: as §1
# [2] = compound: C1COCCN1C2=NC(=NC3=C2OC4=C3C=CC=N4)C5=CC(=CC=C5)NC(=O)C6=CN=C(C=C6)N + COc1cc2c(Oc3ccc(NC(=O)C4(C(=O)Nc5ccc(F)cc5)CC4)cc3F)ccnc2cc1OCCCN1CCOCC1 [Foretinib] (partner 0.25 µM)
# In short: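 For relative viability, nuclei counts in treated wells were divided by those in vehicle wells. Lung cancer cell lines had been pin-tool dosed in 1536-well plates the day after seeding and cultured for 5 days, then fixed and stained in one step (final 0.05% Triton X-100, 1% formaldehyde, 1 ug/ml Hoechst) and imaged at 4×. Doses were one drug alone or a fixed anchor-drug dose plus five library-drug doses (not always all listed) in √10 steps, and values are duplicate-plate medians.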
Cell Line,relative viability (SGI-1776; 0.08 µM),relative viability (SGI-1776; 0.8 µM),relative viability (SGI-1776; 2.53 µM),relative viability (SGI-1776; 8 µM),relative viability ([1]; 0.02 µM),relative viability ([1]; 0.06325 µM),relative viability ([1]; 0.2 µM),relative viability ([1]; 0.6325 µM),relative viability ([1]; 2 µM),relative viability (Entinostat; 0.02 µM),relative viability (Entinostat; 0.06325 µM),relative viability (Entinostat; 0.2 µM),relative viability (Entinostat; 0.6325 µM),relative viability (Entinostat; 2 µM),relative viability ([2]; first compound 0.02 µM),relative viability ([2]; first compound 0.06325 µM),relative viability ([2]; first compound 0.2 µM),relative viability ([2]; first compound 0.6325 µM),relative viability ([2]; first compound 2 µM)
NCI-H727,0.976,1.02,1.01,0.852,0.973,1.1,0.878,0.9,1.02,0.892,0.895,0.887,0.614,0.545,0.945,0.807,0.82,0.865,0.676
EMC-BAC-2,1.05,1.06,0.973,0.87,1.05,0.972,0.912,0.92,0.885,1.18,0.965,0.91,0.598,0.398,0.991,1.07,1.01,0.902,0.766
NCI-H1437,1.02,1.04,0.972,0.887,0.978,1,0.957,0.995,0.56,0.952,0.652,0.476,0.34,0.237,1.31,1.29,1.2,1.27,0.856
NCI-H2347,1.13,1.08,1.02,0.963,0.983,1.09,1.09,0.977,0.741,1.03,0.992,0.91,0.521,0.366,1.09,0.962,0.861,1.07,0.657
NCI-H1666,0.98,1.02,0.98,0.899,1.08,0.994,0.975,0.826,0.764,1.1,1.05,1.08,0.799,0.514,1,0.89,0.774,0.85,0.672
NCI-H1993,0.926,1.04,0.924,0.733,0.981,0.953,0.797,0.946,0.736,0.986,1.02,0.899,0.805,0.645,0.879,0.837,0.732,0.723,0.665
COR-L23,1.06,1.07,1.05,0.883,0.981,1.2,1.18,1.09,0.681,1,1.02,0.904,0.555,0.227,0.97,1.02,0.99,1.1,0.692
LU99A,0.948,1.03,0.964,0.861,0.966,0.956,0.859,0.777,0.564,0.918,0.93,0.871,0.69,0.603,0.824,0.821,0.75,0.582,0.497
NCI-H460,1.01,0.994,0.988,0.947,1.05,1.09,0.974,1.03,0.477,1.02,0.986,0.842,0.307,0.0693,1.11,1.23,1.12,1.08,0.545
NCI-H650,0.935,0.955,0.997,0.677,0.958,0.875,0.918,0.952,0.849,1.15,1.02,0.939,0.941,0.308,1,1.01,1.06,1.03,0.919
NCI-H1975,1.06,1,0.925,0.79,0.881,0.968,0.895,0.874,0.684,0.942,0.826,0.784,0.466,0.267,1.01,0.857,0.896,0.886,0.498
NCI-H1355,1.01,1.06,0.994,0.888,0.967,1.04,0.998,0.959,0.888,0.975,0.918,0.823,0.638,0.523,0.995,1.12,1.1,0.927,0.642
NCI-H1755,0.954,0.993,0.945,0.819,0.997,1.06,0.999,0.956,0.841,0.98,0.94,0.927,0.665,0.467,0.902,0.94,0.871,0.805,0.622
NCI-H2009,1.08,0.992,1.05,0.858,0.979,1.09,0.971,0.94,0.846,1.02,0.974,0.969,0.796,0.644,1.28,1.24,1.19,1.11,0.932
LK-2,1.09,1.03,1.03,0.77,0.998,1.08,1.09,0.757,0.585,1.04,1.03,0.868,0.652,0.349,1.34,1.37,1.35,0.797,0.598
HCC-78,1.09,1.04,0.975,0.866,0.935,1.06,0.966,0.892,0.832,0.991,1.09,0.65,0.467,0.343,0.466,0.553,0.587,0.531,0.425
NCI-H3122,1.03,0.99,1.04,1.05,1.03,1.01,1.01,1.05,0.862,1,1.03,1.02,0.959,0.677,0.991,0.923,0.883,1.14,0.807
